ChEMBL document CHEMBL5543136, “Discovery of Novel Heterotricyclic Compounds as DNA-Dependent Protein Kinase (DNA-PK) Inhibitors with Enhanced Chemosensitivity, Oral Bioavailability, and the Ability to Potentiate Cancer Immunotherapy” (J Med Chem, 2024)
Activity calls are given as the source filed them. No cut-off for these calls is given here.

Key:
[1] = target: DNA-dependent protein kinase catalytic subunit (Homo sapiens, UniProt P78527); experiment: Inhibition of human full-length DNA-PK using EPPLSQEAFADLWKK as substrate incubated for 60 mins in presence of ATP by ADP-Glo kinase assay
Chain of DNA-dependent protein kinase catalytic subunit (P78527 whole entry): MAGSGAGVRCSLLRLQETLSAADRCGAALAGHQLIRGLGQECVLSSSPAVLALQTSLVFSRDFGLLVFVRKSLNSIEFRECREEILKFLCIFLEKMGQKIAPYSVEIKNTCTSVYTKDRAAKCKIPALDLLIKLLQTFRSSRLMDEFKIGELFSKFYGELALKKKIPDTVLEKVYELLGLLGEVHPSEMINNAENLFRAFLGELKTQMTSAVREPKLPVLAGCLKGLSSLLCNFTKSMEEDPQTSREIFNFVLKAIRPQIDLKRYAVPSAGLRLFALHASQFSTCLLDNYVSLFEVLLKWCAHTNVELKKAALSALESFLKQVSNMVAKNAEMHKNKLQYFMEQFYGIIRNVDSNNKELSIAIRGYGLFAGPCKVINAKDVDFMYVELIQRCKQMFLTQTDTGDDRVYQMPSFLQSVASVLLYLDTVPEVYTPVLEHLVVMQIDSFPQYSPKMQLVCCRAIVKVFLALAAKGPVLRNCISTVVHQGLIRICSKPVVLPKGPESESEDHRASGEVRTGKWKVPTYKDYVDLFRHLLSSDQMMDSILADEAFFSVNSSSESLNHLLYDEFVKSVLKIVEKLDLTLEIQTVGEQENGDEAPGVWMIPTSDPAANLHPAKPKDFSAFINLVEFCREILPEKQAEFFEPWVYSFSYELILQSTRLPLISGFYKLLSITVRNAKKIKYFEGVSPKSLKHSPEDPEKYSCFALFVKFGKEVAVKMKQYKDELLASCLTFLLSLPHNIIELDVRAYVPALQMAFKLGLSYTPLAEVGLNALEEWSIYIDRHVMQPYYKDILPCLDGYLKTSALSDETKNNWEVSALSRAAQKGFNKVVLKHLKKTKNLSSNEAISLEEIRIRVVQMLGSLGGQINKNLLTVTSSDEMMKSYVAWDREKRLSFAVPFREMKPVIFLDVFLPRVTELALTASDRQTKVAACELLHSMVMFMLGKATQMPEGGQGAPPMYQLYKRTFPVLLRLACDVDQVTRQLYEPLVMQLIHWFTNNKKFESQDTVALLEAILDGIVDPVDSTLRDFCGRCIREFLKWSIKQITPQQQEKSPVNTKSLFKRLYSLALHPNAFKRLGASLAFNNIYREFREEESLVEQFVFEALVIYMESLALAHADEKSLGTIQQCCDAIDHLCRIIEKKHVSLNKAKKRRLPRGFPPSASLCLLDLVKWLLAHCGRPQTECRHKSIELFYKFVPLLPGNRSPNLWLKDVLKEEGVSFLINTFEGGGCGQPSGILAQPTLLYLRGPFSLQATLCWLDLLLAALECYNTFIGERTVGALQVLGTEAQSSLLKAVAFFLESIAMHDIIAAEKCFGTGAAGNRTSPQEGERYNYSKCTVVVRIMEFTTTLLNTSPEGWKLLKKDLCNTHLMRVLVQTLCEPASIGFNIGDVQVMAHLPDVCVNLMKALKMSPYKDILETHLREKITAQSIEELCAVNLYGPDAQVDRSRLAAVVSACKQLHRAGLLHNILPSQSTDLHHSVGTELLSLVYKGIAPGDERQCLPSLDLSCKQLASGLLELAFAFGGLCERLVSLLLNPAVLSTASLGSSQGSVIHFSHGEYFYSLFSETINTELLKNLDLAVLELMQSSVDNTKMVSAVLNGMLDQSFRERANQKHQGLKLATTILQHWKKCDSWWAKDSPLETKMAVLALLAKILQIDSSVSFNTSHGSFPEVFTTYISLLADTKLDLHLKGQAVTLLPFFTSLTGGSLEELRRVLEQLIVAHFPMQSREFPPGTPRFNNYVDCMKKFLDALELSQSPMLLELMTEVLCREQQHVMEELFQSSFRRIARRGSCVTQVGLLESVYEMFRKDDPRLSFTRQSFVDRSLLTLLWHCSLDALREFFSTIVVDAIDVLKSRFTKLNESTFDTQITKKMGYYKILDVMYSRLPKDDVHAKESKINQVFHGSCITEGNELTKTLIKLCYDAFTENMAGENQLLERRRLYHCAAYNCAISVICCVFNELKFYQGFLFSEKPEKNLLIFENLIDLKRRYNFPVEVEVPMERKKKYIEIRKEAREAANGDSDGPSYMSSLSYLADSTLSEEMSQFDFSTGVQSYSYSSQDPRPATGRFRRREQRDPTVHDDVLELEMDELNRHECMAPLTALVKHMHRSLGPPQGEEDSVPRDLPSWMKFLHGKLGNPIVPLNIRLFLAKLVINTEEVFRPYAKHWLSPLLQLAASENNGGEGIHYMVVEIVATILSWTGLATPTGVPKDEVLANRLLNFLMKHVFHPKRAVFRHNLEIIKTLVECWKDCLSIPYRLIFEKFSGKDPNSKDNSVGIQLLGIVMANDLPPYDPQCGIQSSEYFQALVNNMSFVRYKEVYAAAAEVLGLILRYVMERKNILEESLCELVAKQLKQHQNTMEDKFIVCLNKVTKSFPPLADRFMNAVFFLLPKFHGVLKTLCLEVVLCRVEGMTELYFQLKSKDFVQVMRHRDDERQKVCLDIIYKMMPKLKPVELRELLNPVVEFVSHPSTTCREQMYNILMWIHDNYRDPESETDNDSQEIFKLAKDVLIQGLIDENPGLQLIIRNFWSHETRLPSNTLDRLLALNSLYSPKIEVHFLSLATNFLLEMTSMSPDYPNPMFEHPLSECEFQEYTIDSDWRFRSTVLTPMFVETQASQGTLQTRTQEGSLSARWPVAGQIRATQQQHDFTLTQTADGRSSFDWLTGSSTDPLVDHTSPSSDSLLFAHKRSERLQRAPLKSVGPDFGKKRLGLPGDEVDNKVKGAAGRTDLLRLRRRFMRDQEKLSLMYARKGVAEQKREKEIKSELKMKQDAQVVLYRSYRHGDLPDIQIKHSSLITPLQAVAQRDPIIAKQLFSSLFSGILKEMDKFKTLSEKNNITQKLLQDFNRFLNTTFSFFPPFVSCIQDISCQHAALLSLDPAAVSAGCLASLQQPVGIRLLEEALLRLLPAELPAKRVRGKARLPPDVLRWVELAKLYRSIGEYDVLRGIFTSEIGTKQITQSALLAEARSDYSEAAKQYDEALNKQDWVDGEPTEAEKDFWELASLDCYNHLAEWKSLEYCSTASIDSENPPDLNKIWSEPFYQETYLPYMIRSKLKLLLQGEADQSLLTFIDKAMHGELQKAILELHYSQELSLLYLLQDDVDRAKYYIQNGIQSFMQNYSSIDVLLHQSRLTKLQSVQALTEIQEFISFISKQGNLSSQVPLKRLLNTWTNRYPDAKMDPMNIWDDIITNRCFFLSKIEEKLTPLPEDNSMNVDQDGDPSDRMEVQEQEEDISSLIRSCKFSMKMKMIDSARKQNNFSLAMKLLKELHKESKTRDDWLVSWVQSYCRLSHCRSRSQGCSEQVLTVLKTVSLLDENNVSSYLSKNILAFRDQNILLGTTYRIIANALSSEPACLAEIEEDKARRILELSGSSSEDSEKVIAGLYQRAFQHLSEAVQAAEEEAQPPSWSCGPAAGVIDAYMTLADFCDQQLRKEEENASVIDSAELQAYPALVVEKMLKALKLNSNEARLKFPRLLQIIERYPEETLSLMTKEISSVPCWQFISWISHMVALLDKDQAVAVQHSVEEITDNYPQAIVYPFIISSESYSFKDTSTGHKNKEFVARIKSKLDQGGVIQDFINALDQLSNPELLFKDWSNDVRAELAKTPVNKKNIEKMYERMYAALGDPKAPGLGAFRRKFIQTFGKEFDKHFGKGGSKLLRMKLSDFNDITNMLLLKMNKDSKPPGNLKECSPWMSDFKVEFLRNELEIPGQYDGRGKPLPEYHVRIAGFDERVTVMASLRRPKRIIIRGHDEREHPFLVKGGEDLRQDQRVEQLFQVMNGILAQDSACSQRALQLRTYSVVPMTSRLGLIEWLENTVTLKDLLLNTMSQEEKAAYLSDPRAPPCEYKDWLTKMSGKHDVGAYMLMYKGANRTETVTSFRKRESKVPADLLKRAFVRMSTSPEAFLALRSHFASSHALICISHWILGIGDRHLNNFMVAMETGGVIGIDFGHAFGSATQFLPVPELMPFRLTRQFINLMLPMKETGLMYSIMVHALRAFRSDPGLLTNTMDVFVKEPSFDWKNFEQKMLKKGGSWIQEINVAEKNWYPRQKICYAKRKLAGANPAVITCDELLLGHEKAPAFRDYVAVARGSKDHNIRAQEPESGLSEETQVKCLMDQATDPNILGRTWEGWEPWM

[2] = test system: CT26; experiment: Antiproliferative activity against mouse CT26 cells assessed as reduction in cell viability incubated for 48 hrs by CCK-8 assay; assay type: functional, cell-based; details: CT26, 48 h
[3] = test system: B16-F10; experiment: Antiproliferative activity against mouse B16-F10 cells assessed as reduction in cell viability incubated for 48 hrs by CCK-8 assay; assay type: functional, cell-based; details: B16-F10, 48 h
[4] = test system: Jurkat; experiment: Antiproliferative activity against human Jurkat cells assessed as reduction in cell viability incubated for 48 hrs by CCK-8 assay; assay type: functional, cell-based
[5] = test system: CT26; experiment: Synergistic antiproliferative activity against mouse CT26 cells assessed as reduction in cell viability incubated for 48 hrs in presence of doxorubicin by CCK-8 assay; assay type: functional, cell-based; details: CT26, 48 h
[6] = test system: B16-F10; experiment: Synergistic antiproliferative activity against mouse B16-F10 cells assessed as reduction in cell viability incubated for 48 hrs in presence of doxorubicin by CCK-8 assay; assay type: functional, cell-based; details: B16-F10, 48 h
[7] = Selectivity ratio of IC50 for antiproliferative activity against mouse CT26 cells to IC50 for synergistic antiproliferative activity against mouse CT26 cells in presence of doxorubicin; assay type: functional
[8] = Selectivity ratio of IC50 for antiproliferative activity against mouse B16-F10 cells to IC50 for synergistic antiproliferative activity against mouse B16-F10 cells in presence of doxorubicin; assay type: functional
[9] = test system: HepG2; experiment: Inhibition of DNA damage repair in human HepG2 cells assessed as reduction in gammaH2AX expression level by Western blot analysis; assay type: functional, cell-based; details: dose 10-40 µM
[10] = test system: HepG2; experiment: Inhibition of DNA damage repair in human HepG2 cells assessed as reduction in gammaH2AX fluorescence intensity by DAPI staining based immunofluorescence analysis; assay type: functional, cell-based; details: dose 10-40 µM
[11] = test system: Jurkat; experiment: Induction of cell cycle arrest in human Jurkat cells assessed as increase in G2/M phase cells at 1 uM incubated for 24 hrs in presence of doxorubicin by PI staining based flow cytometric analysis; assay type: functional
[12] = test system: Cell membrane; experiment: Induction of mitochondrial membrane potential loss in human Jurkat cells at 1 uM incubated for 24 hrs by JC-1 staining based flow cytometric analysis; assay type: cell membranes
[13] = test system: Cell membrane; experiment: Induction of mitochondrial membrane potential loss in human Jurkat cells at 1 uM incubated for 24 hrs in presence of doxorubicin by JC-1 staining based flow cytometric analysis; assay type: cell membranes
[14] = AUC (0 to infinity) in male Sprague-Dawley rat at 2 mg/kg, iv measured after 48 hrs by LC-MS/MS analysis; assay type: ADME, organism-based; details: in vivo
[15] = Tmax in male Sprague-Dawley rat at 2 mg/kg, iv measured after 48 hrs by LC-MS/MS analysis; assay type: ADME, organism-based; details: in vivo
[16] = Apparent volume of distribution in male Sprague-Dawley rat at 2 mg/kg, iv measured after 48 hrs by LC-MS/MS analysis; assay type: ADME, organism-based; details: in vivo, read-out: Vz
[17] = C0 in male Sprague-Dawley rat at 2 mg/kg, iv measured after 48 hrs by LC-MS/MS analysis; assay type: ADME, organism-based; details: in vivo
[18] = AUC (0 to t) in male Sprague-Dawley rat at 10 mg/kg, po measured after 48 hrs by LC-MS/MS analysis; assay type: ADME, organism-based; details: in vivo
[19] = Tmax in male Sprague-Dawley rat at 10 mg/kg, po measured after 48 hrs by LC-MS/MS analysis; assay type: ADME, organism-based; details: in vivo
[20] = Cmax in male Sprague-Dawley rat at 10 mg/kg, po measured after 48 hrs by LC-MS/MS analysis; assay type: ADME, organism-based; details: in vivo
[21] = Oral bioavailability in male Sprague-Dawley rat at 10 mg/kg measured after 48 hrs by LC-MS/MS analysis; assay type: ADME, organism-based; details: in vivo
[22] = test system: CT26; experiment: Antitumor activity against mouse CT26 cells implanted in BALB/c mouse assessed as reduction in tumor weight at 10 mg/kg, ip administered once daily for 21 days relative to control; assay type: functional; parameters: scale not given: the % may be the effect or the level left; details: time 21 day
[23] = test system: CT26; experiment: Antitumor activity against mouse CT26 cells implanted in BALB/c mouse assessed as reduction in tumor volume at 10 mg/kg, ip administered once daily for 21 days relative to control; assay type: functional; parameters: scale not given: the % may be the effect or the level left; details: time 21 day
[24] = test system: CT26; experiment: Antitumor activity against mouse CT26 cells implanted in BALB/c mouse assessed as reduction in tumor weight by measuring tumor growth inhibition at 10 mg/kg, ip QD co-administered with doxorubicin for 21 days relative to control; assay type: functional; details: CT26, 504 h, time 21 day, read-out: TGI
[25] = Toxicity in BALB/c mouse implanted with mouse CT26 cells assessed as death at 10 mg/kg, ip QD co-administered with doxorubicin for 21 days; assay type: organism-based; details: in vivo, 504 h, time 21 day
[26] = Toxicity in BALB/c mouse implanted with mouse CT26 cells assessed as weight loss at 10 mg/kg, ip administered once daily for 21 days; assay type: organism-based; details: in vivo, 504 h, time 21 day
[27] = test system: B16-F10; experiment: Antitumor activity against mouse B16-F10 cells implanted in C57BL/6 mouse assessed as tumor growth inhibition at 10 mg/kg, ip QD co-administered with SWS1 for 13 days relative to control; assay type: functional; details: B16-F10, 312 h, time 13 day, read-out: TGI
[28] = Toxicity in C57BL/6 mouse implanted with mouse B16-F10 cells assessed as effect on body weight at 10 mg/kg, ip QD co-administered with PD-L1 antibody for 13 days; assay type: organism-based; details: in vivo, 312 h, time 13 day
[29] = Toxicity in C57BL/6 mouse implanted with mouse B16-F10 cells assessed as effect on body weight at 10 mg/kg, ip QD co-administered with SWS1 for 13 days; assay type: organism-based; details: in vivo, 312 h, time 13 day
[30] = test system: B16-F10; experiment: Immunomodulatory activity in mouse B16-F10 cells implanted in C57BL/6 mouse assessed as percentage of CD3 positive CD4 positive cells in tumor at 10 mg/kg, ip QD co-administered with PD-L1 antibody for 13 days by flow cytometric analysis (reference value: 0.86%); assay type: functional; details: time 13 day
[31] = test system: B16-F10; experiment: Immunomodulatory activity in mouse B16-F10 cells implanted in C57BL/6 mouse assessed as percentage of CD3 positive CD4 positive cells in tumor at 10 mg/kg, ip QD co-administered with SWS1 for 13 days by flow cytometric analysis (reference value: 0.86%); assay type: functional; details: time 13 day
[32] = test system: B16-F10; experiment: Immunomodulatory activity in mouse B16-F10 cells implanted in C57BL/6 mouse assessed as percentage of CD3 positive CD8 positive cells in tumor at 10 mg/kg, ip QD co-administered with PD-L1 antibody for 13 days by flow cytometric analysis (reference value: 0.99%); assay type: functional; details: time 13 day
[33] = Toxicity in C57BL/6 mouse implanted with mouse B16-F10 cells assessed as change in heart histopathology at 10 mg/kg, ip administered once daily for 13 days by H&E staining based analysis; assay type: organism-based; details: in vivo, 312 h, time 13 day
[34] = Toxicity in C57BL/6 mouse implanted with mouse B16-F10 cells assessed as change in liver histopathology at 10 mg/kg, ip administered once daily for 13 days by H&E staining based analysis; assay type: organism-based; details: in vivo, 312 h, time 13 day
[35] = Toxicity in C57BL/6 mouse implanted with mouse B16-F10 cells assessed as change in spleen histopathology at 10 mg/kg, ip administered once daily for 13 days by H&E staining based analysis; assay type: organism-based; details: in vivo, 312 h, time 13 day

Structure (SMILES): Cc1cc2cccnc2cc1Nc1ncc2c(n1)N(C1CCOCC1)Cc1nncn1-2
- IC50 [1]: 0.00011 µM
- IC50 [2]: 4.1 µM
- IC50 [3]: 10.3 µM
- IC50 [4]: 0.6 µM
- IC50 [5]: 9.7 µM
- IC50 [6]: 4.9 µM
- Ratio IC50 [7]: 4.5
- Ratio IC50 [8]: 2.1
- inhibition [9]: Dose-Dependent Effect
- inhibition [10]: Dose-Dependent Effect
- Activity [11]: Active
- Activity [12]: inactive
- Activity [13]: Active
- AUC(0-inf) [14]: 605 ng·h/mL
- Tmax [15]: 4.98 min
- Vd [16]: 4.7 L/kg
- C0 at 48 h [17]: 1000 ng/mL
- AUC(0-t) at 48 h [18]: 950 ng·h/mL
- Tmax [19]: 84 min
- Cmax [20]: 324 ng/mL
- bioavailability [21]: 31.8%
- Activity [22]: 30.8%
- Activity [23]: 32.1%
- inhibition in vivo at 10 mg/kg [24]: 50.2%
- Activity [25]: Non-Toxic
- Activity [26]: Non-Toxic
- inhibition in vivo at 10 mg/kg [27]: 63.2%
- Activity [28]: Non-Toxic
- Activity [29]: Non-Toxic
- Activity [30]: 4.06%
- Activity [31]: 4.02%
- Activity [32]: 5.17%
- Activity [33]: Non-Toxic
- Activity [34]: Non-Toxic
- Activity [35]: Non-Toxic
